Data: US9617331B2, “Methods of regulating angiogenesis by administering agents which increase apoB-100 polypeptide” (Yeda Research and Development Co. Ltd., priority 2011, dated 2017)

Columns and labels:
[1] = test system: stl mutants; assay: Rescue of ectopic SIV sprouts in stl mutant zebrafish; type: in vivo; settings: for excess angiogenesis / ectopic branching phenotype of stl mutants: intravascular supply at 2.5 dpf
Method: (§1) FIG. 6 illustrates quantitation of SW vascular plexus width and ectopic ventral SW sprout number and length. The maximal width of the normal SIV plexus is measured from supraintestinal artery to subintestinal vein (1). The number of ectopic sprouts greater than 1 μm in length projecting ventrally from the subintestinal vein is counted, and the total length of all of these sprouts (2) is measured. […] Scale bar 30 μm.
Cloning of mtp and Rescue of the Mutant Phenotype: The full-length coding sequence of zebrafish mtp was amplified by PCR from WT cDNA and cloned into a pCSDest vector [Villefranc et al., Dev Dyn 236, 3077-3087 (2007)] as further described herein below. mtp mRNA was synthesized with mMessage mMachine kit (Ambion) and injected at a concentration of 232 pg per embryo into the 1 cell stage cytoplasm or into the YSL at dome stage (approximately at 4 hpf).
(§2) Microangiography and Cell Transplants: 10 μM Atorvastatin (Sigma), 1 ug/μl DiI-LDL (Invitrogen), 6 μg/ml C6 in 0.5% BSA Fatty Acid Free (Sigma A8806) and Human Apolipoprotein B-100 (A50220H Meridian Life Science) in 0.5% BSA Fatty Acid Free (Sigma A8806) microangiography was performed at 2.5 dpf as described [Isogai et al., Dev Biol 230, 278-301 (2001)]. HEK293 cells co-transfected with Huh7MTP+apoB34 (see herein below) or un-transfected control cells were transplanted into the perivitelline space of one side of the yolk of 2.5 dpf stl; Tg(fli1:EGFP)^y1 mutant or WT embryos, ventral to the developing SIVs [Nicoll et al., J Cell Mol Med (2008)].
(§3) In Situ Hybridization, Oil Red 0, and Alkaline Phosphatase (AP) Staining: Embryos were fixed overnight in 4% PFA and processed for AP staining [Habeck et al., Curr Biol 12, 1405-1412 (2002)], Oil Red 0 staining [Schlegel et al., Biochemistry 45, 15179-15187 (2006)], or whole-mount in situ hybridization using antisense mRNA probes for vegfr1, vegfr2, vegfr3 and VeCad as described [Pham et al., Dev Biol 303, 772-783 (2007)].
pCS2vegfrlCDS mRNA ([…]) and pCS2mtpCDSmRNA ([…]) were injected at the 1 cell stage or at dome stage, respectively.
(§4) Fatty Acids Feeding of Zebrafish Embryos: Dechorionized 24 hours post fertilization (hpf) embryos were incubated with 6 μg/ml short, intermediate or long chain fatty acid in a solution containing 0.1% BSA Fatty Acid Free (Sigma A8806) for 48 hours. Embryos were then fixed overnight in 4% PFA and processed for AP staining.

[2] = test system: apoCII morphants; assay: Fatty acid feeding of apoCII morphants, trunk ISV phenotype; type: in vivo, zebrafish; settings: medium supplemented with 6 μg/ml (C6)
Method: as §4

[3] = test system: WT zebrafish embryos; assay: Survival of WT zebrafish embryos treated with oleic acid; type: in vivo; settings: increasing concentrations
Method: FIG. 11 is a survival curve of WT zebrafish embryos treated with increasing concentrations of oleic acid. Only embryos treated with less than 6 μg/ml oleic acid survived until 6 dpf.

[4] = test system: subintestinal vessels (SIVs) of wild type zebrafish; assay: Ectopic subintestinal vessel (SIV) sprouting in wild type zebrafish (AP staining / confocal imaging); type: in vivo; settings: for ectopic SIV branching: 3.5 dpf wild type larva treated with 10 μM at 2.5 dpf, vs DMSO
Method: as §1
Zebrafish Husbandry and Injection: Zebrafish were raised by standard methods. The Tg(fli1:EGFP)^y1, Tg(fli1:nEGFP)^y7 [Yaniv et al., Nat Med 12, 711-716 (2006)] and Tg(flt1:YFP)^hu4624 [Hogan et al., Nat Genet 41, 396-398 (2009)] lines were previously derived. MOs and DNA were injected as further described below.
as §2, §3
Microscopy and Imaging: Zebrafish embryos used for imaging or in situ hybridization were treated with 0.00 3% phenylthiourea from 8hpf to inhibit melanin pigment formation. […]

[5] = test system: trunk ISVs; assay: Trunk intersegmental vessel (ISV) phenotype of morpholino-injected zebrafish; type: in vivo; settings: 3.5 dpf MO-injected zebrafish
Method: Microscopy and Imaging: Zebrafish embryos used for imaging or in situ hybridization were treated with 0.00 3% phenylthiourea from 8hpf to inhibit melanin pigment formation. Confocal imaging was performed using a FVIOOO Olympus imaging system or Zeiss LSM780 upright confocal microscope equipped with ×20 NA 1.0 lens.
Injection of Zebrafish Embryos: The mtp [Schlegel, A. & Stainier, D. Y. Biochemistry 45, 15179-15187 (2006)], apoCII [Pickart, M. A., et al. PLoS One 1, e104 (2006);
MOs (Gene-Tools) were resuspended and injected at concentrations from 5-20 ng/embryo.

[6] = stl mutants injected intravascularly at 2.5 dpf, vs not injected

Compound: delipidated form of apoB-100: Human Apolipoprotein B-100 (A50220H Meridian Life Science)
- excess angiogenesis / ectopic branching phenotype of stl mutants [1]: efficiently reverted the excess angiogenesis phenotype
- average number of ectopic SIV segments [1, 6]: significantly reduced
- average total length of ectopic SIV segments [1, 6]: significantly reduced

Compound: CCCCCC(=O)O [scFA]
- trunk ISV phenotype of apoCII morphants [2]: No phenotypic changes were detected
- ectopic vessels phenotype of stl mutants ([1]; 3.5 dpf stl mutants, 6 μg/ml fatty acid in embryo medium): did not inhibit the ectopic vessels phenotype
- excess angiogenesis / ectopic branching phenotype of stl mutants [1]: did not rescue the ectopic branching phenotype

Compound: CCCCCCCC/C=C\CCCCCCCC(=O)O [oleic acid]
- oleic acid concentration at which embryos survived until 6 dpf [3]: less than 6 μg/ml

Compound: vegfr1 MO: vegfr1 ATG blocking morpholino, SEQ ID NO: 1, 5′-ATATCGAACATTCTCTTGGTCTTGC-3′ (all phosphorodiamidate morpholino (PMO))
- ectopic SIV sprouts after morpholino injection ([4]; 3.5 dpf Tg(fli-EGFP)y1 zebrafish, MO-injected): ectopic SIV sprouts
- trunk ISV phenotype [5]: ectopic branching and sprouting

Compound: CC(C)c1c(C(=O)Nc2ccccc2)c(-c2ccccc2)c(-c2ccc(F)cc2)n1CC[C@@H](O)C[C@@H](O)CC(=O)O [atorvastatin, Atorvastatin]
- ectopic SIV branching [4]: efficiently phenocopied the excess angiogenesis phenotype of stl mutants
- ectopic SIV branching ([4]; listed as Atorvastatin): results in ectopic SW branching
